Measurements from patent publication EP1921115B1, “Use of 3-hydroxy-cyclohex-2-enone azo based dyes in optical layers” (Clariant Finance (BVI) Limited, priority 2006, dated 2008).

Legend:
Format in all cases: physicochemical
[1] = Thermal decomposition: decomposition point (DP); details: sealed aluminum pan, 25 to 400°C, heating rate 10°C/min, nitrogen flow, single measurement
Experimental: For the determination of DP and HR, the compound is incorporated into a sealed aluminum pan. Analysis conditions are as following: Temperature range from 25 to 400°C, heating rate 10°C/min, nitrogen flow of 50 ml/min. Values are determined by single measurement.

[2] = Solubility in 2,2,3,3 tetrafluoropropanol; details: in 2,2,3,3 tetrafluoropropanol at 25 °C
From the text: The solubilities were differentiated into three groups: A Good solubility (> 20 g / L) B Medium solubility (>= 10 and <= 20 g / L) C Poor solubility (<10 g / L)

[3] = UV-vis spectra (λ max and ε); details: dissolved in CH2Cl2, DMSO or in tfp
Experimental: For UV-vis spectra, λ max and ε values of a compound are determined by using an UV-vis spectrophotometer, the compound was dissolved in CH2Cl2, DMSO or in tfp. The values are obtained by balancing the measurements performed on compound solutions at three different concentrations.

SMILES	DP [1] [°C]	Solubility [2]	ε (at λ max) ([3]; Table A, azo ligands) [L/g/cm]	λ max [3] [nm]	ε (at λ max) ([3]; Table B, metal complexes) [L/g/cm]
CCOC(=O)C1C(O)=C(N=Nc2ccc(C)cc2[N+](=O)[O-])C(=O)CC1(C)C (centres unmarked) [compound of formula (1)]	282	A (Good solubility (> 20 g / L))	63	427	
CCOC(=O)C1C(O)=C(N=Nc2ccc([N+](=O)[O-])cc2OC)C(=O)CC1(C)C (centres unmarked) [compound of formula (11)]	288	A (Good solubility (> 20 g / L))	44	432	
CCOC(=O)C1C([O][Ni][O]C2=C(N=Nc3ccc([N+](=O)[O-])cc3OC)C(=O)CC(C)(C)C2C(=O)OCC)=C(N=Nc2ccc([N+](=O)[O-])cc2OC)C(=O)CC1(C)C (centres unmarked) [compound of formula (19)]	278	A (Good solubility (> 20 g / L))		442	67
CCOC(=O)C1C(O)=C(N=Nc2ccc(C(F)(F)F)cc2[N+](=O)[O-])C(=O)CC1(C)C (centres unmarked) [compound of formula (7)]	276	A (Good solubility (> 20 g / L))	32	399	
Cc1ccc(N=NC2=C(O)C(C#N)C(C)(C)CC2=O)c([N+](=O)[O-])c1 (centres unmarked) [compound of formula (13)]	270	C (Poor solubility (<10 g / L))	52	442	
CCOC(=O)C1C(O)=C(N=Nc2c(Br)cc([N+](=O)[O-])cc2C#N)C(=O)CC1(C)C (centres unmarked) [compound of formula (8)]	226	B (Medium solubility (>= 10 and <= 20 g / L))	55	396	
CC1(C)CC(=O)C(N=Nc2cc([N+](=O)[O-])ccc2O)=C(O)C1C#N (centres unmarked) [compound of formula (16)]	249	C (Poor solubility (<10 g / L))	17	423	
CCOC(=O)C1C(O)=C(N=Nc2cc(OC)c(S(N)(=O)=O)cc2OC)C(=O)CC1(C)C (centres unmarked) [compound of formula (12)]	279	A (Good solubility (> 20 g / L))	25	438	
CCOC(=O)C1C([O][Cu][O]C2=C(N=Nc3ccc([N+](=O)[O-])cc3OC)C(=O)CC(C)(C)C2C(=O)OCC)=C(N=Nc2ccc([N+](=O)[O-])cc2OC)C(=O)CC1(C)C (centres unmarked) [compound of formula (18)]	276	C (Poor solubility (<10 g / L))		431	50
CCOC(=O)C1C(O)=C(N=Nc2ccccc2[N+](=O)[O-])C(=O)CC1(C)C (centres unmarked) [compound of formula (4)]	238	B (Medium solubility (>= 10 and <= 20 g / L))	52	424	
CCOC(=O)C1C(O)=C(N=Nc2c(C)cc(C)cc2C)C(=O)CC1(C)C (centres unmarked) [compound of formula (10)]	248	A (Good solubility (> 20 g / L))	55	413	
CCOC(=O)C1C(O)=C(N=Nc2c(F)c(F)c(F)c(F)c2F)C(=O)CC1(C)C (centres unmarked) [compound of formula (17)]	157	A (Good solubility (> 20 g / L))	29	326	
CCOC(=O)C1C(O)=C(N=Nc2ccc(OC)cc2[N+](=O)[O-])C(=O)CC1(C)C (centres unmarked) [compound of formula (6)]	273	B (Medium solubility (>= 10 and <= 20 g / L))	56	448	
CCOC(=O)C1C(O)=C(N=Nc2ccc([N+](=O)[O-])cc2Br)C(=O)CC1(C)C (centres unmarked) [compound of formula (9)]	285	A (Good solubility (> 20 g / L))	72	400	
CCOC(=O)C1C([O][Cu][O]C2=C(N=Nc3cc(OC)c(S(N)(=O)=O)cc3OC)C(=O)CC(C)(C)C2C(=O)OCC)=C(N=Nc2cc(OC)c(S(N)(=O)=O)cc2OC)C(=O)CC1(C)C (centres unmarked) [compound of formula (20)]	314	B (Medium solubility (>= 10 and <= 20 g / L))		441	42
COc1ccc(N=NC2=C(O)C(C#N)C(C)(C)CC2=O)c([N+](=O)[O-])c1 (centres unmarked) [compound of formula (15)]	154	C (Poor solubility (<10 g / L))	50	458	
CCOC(=O)C1C(O)=C(N=Nc2ccc(S(C)(=O)=O)cc2[N+](=O)[O-])C(=O)CC1(C)C (centres unmarked) [compound of formula (5)]	200	A (Good solubility (> 20 g / L))	19	384	
CC1(C)CC(=O)C(N=Nc2ccc(Cl)cc2[N+](=O)[O-])=C(O)C1C#N (centres unmarked) [compound of formula (14)]	222	A (Good solubility (> 20 g / L))	42	437	
CCOC(=O)C1C(O)=C(N=Nc2ccc(Cl)cc2[N+](=O)[O-])C(=O)CC1(C)C (centres unmarked) [compound of formula (3)]	274	A (Good solubility (> 20 g / L))	52	421	
CCOC(=O)C1C(O)=C(N=Nc2cc([N+](=O)[O-])ccc2O)C(=O)CC1(C)C (centres unmarked) [compound of formula (2)]	253	A (Good solubility (> 20 g / L))	52	411	
